In patent US20190060261A1, “ACTIVE COMBINATIONS OF PERILLIC ACID AND ACTIVITY ENHANCING SUBSTANCES” (B.R.A.I.N BIOTECHNOLOGY RESEARCH AND INFORMATION NETWORK AG, priority 2016, published 2019):
In brackets after ≈: the same amount, converted by molar mass.

Key:
[1] = tested on: Escherichia coli ATCC 8739; assay: Minimal inhibition concentration (MIC), microdilution method adapted from DIN EN ISO 20776-1:2006; format: cell-based; settings: Mueller-Hinton II Bouillon, 25 mM MES-buffer, 37° C., no growth after 24 h and 72 h; for MIC: Escherichia coli, ATCC8739, read-out: MIC [A to D] Escherichia coli
Excerpt: (§1) The antimicrobial activity of different substances was examined and compared to perillic acid in vitro using the microdilution method adapted from DIN EN ISO 20776-1:2006. Besides perillic acid and its sodium salt, other organic acids like levulinic acid, p-anisic acid, benzoic acid and sorbic acid as well as alkane-1,2-diols such as hexane-1,2-diol, octane-1,2-diol and decane-1,2-diol were studied. Additionally, the commonly used preservatives 2-phenoxyethanol, 2-phenylethanol and benzyl alcohol were investigated.
(§2) All experiments were done in 96-well plates in a final volume of 200 μL. Test solutions of the investigated compounds were prepared in 25 mM buffered water. The procedure was conducted as following: 4 μL of the particular stock solution were mixed with 196 μL culture medium containing a defined inoculum of the respective target strain. Sterile controls (not inoculated) and growth controls (buffer instead of compound added) were performed. All compound concentrations were tested in triplicate for several times. The following contamination germs were examined: Escherichia coli ATCC 8739, Pseudomonas aeruginosa ATCC 9027, Stapyhlococcus aureus ATCC®6538, Bacillus subtilis subsp. spizizenii ATCC®6633, Candida albicans ATCC®10231 and Aspergillus brasiliensis ATCC®16404. The strains were cultivated either in Mueller-Hinton II Bouillon (Escherichia coli, Pseudomonas aeruginosa, Staphylococcus aureus), in yeast peptone dextrose (Bacillus subtilis, Candida albicans) or in potato dextrose medium (Aspergillus brasiliensis). All culture media were buffered with 25 mM MES-buffer. For compound testing, the plates were incubated at 37° C. for Escherichia coli, Pseudomonas aeruginosa and Staphylococcus aureus, at 28° C. for Bacillus subtilis and Candida albicans, and at 25° C. for Aspergillus brasiliensis. Plates were evaluated after 24 h and 72 h, respectively. The minimal inhibitory concentration (MIC) is defined as the concentration where no microbial growth was observed after 24 h and 72 h incubation at the specified temperature.
(§3) MIC-values are given according to the following letter code.

[2] = tested on: Aspergillus brasiliensis ATCC®16404; assay: Minimal inhibition concentration (MIC), microdilution method; format: cell-based; settings: potato dextrose medium, 25 mM MES-buffer, 25° C., no growth after 24 h and 72 h; for MIC: Aspergillus brasiliensis, ATCC16404, read-out: MIC [A to D] Aspergillus brasiliensis
Excerpt: as §1, §2, §3

[3] = tested on: Bacillus subtilis subsp. spizizenii ATCC®6633; assay: as above; format: cell-based; settings: yeast peptone dextrose, 25 mM MES-buffer, 28° C., no growth after 24 h and 72 h
Excerpt: as §1, §2, §3

[4] = tested on: Candida albicans ATCC®10231; assay: as above; format: cell-based; settings: yeast peptone dextrose, 25 mM MES-buffer, 28° C., no growth after 24 h and 72 h
Excerpt: as §1, §2, §3

[5] = tested on: Pseudomonas aeruginosa ATCC 9027; assay: as above; format: cell-based; settings: Mueller-Hinton II Bouillon, 25 mM MES-buffer, 37° C., no growth after 24 h and 72 h; for MIC: Pseudomonas aeruginosa, ATCC9027, read-out: MIC [A to D] Pseudomonas aeruginosa
Excerpt: as §1, §2, §3

[6] = tested on: Stapyhlococcus aureus ATCC®6538; assay: as above; format: cell-based, Staphylococcus aureus; settings: Mueller-Hinton II Bouillon, 25 mM MES-buffer, 37° C., no growth after 24 h and 72 h
Excerpt: as §1, §2, §3

Compound	MIC [1]	MIC [2]	MIC [A to D] Bacillus subtilis [3]	MIC [A to D] Candida albicans [4]	MIC [5]	MIC [A to D] Staphylococcus aureus [6]	MIC [A to D] Escherichia coli [1]	MIC [A to D] Aspergillus brasiliensis [2]	MIC [A to D] Pseudomonas aeruginosa [5]	MIC ([3]; Bacillus subtilis, ATCC6633, read-out: MIC [A to D] Bacillus subtilis)	MIC ([4]; Candida albicans, ATCC10231, read-out: MIC [A to D] Candida albicans)	MIC ([6]; Staphylococcus aureus, ATCC6538, read-out: MIC [A to D] Staphylococcus aureus)
CCCCC(O)CO (stereo not drawn) [Hexane-1,2-diol]	5000 to 10000 µg/mL (≈ 42.3 to 84.6 mM)	5000 to 10000 µg/mL (≈ 42.3 to 84.6 mM)	A (MIC>1% (w/v))	A (MIC>1% (w/v))	5000 to 10000 µg/mL (≈ 42.3 to 84.6 mM)	A (MIC>1% (w/v))						
C=C(C)[C@H]1CC=C(C(=O)O)CC1 [R-Perillic acid]			D (MIC<0.1% (w/v))	D (MIC<0.1% (w/v))		D (MIC<0.1% (w/v))	C (MIC=0.1-0.5% (w/v))	D (MIC<0.1% (w/v))	B (MIC=0.5-1% (w/v))			
C=C(C)[C@@H]1CC=C(C(=O)O)CC1 [S-Perillic acid]			D (MIC<0.1% (w/v))	D (MIC<0.1% (w/v))		D (MIC<0.1% (w/v))	C (MIC=0.1-0.5% (w/v))	D (MIC<0.1% (w/v))	B (MIC=0.5-1% (w/v))			
O=C([O-])c1ccccc1.[Na+] [Sodium benzoate]			D (MIC<0.1% (w/v))	C (MIC=0.1-0.5% (w/v))		B (MIC=0.5-1% (w/v))	B (MIC=0.5-1% (w/v))	A (MIC>1% (w/v))	B (MIC=0.5-1% (w/v))			
C=C(C)C1CC=C(C(=O)[O-])CC1.[Na+] (stereo not drawn) [Sodium perillate]			D (MIC<0.1% (w/v))	D (MIC<0.1% (w/v))		D (MIC<0.1% (w/v))	C (MIC=0.1-0.5% (w/v))	D (MIC<0.1% (w/v))	B (MIC=0.5-1% (w/v))			
COc1ccc(C(=O)O)cc1 [p-Anisic acid]	1000 to 5000 µg/mL (≈ 6.57 to 32.9 mM)	1000 to 5000 µg/mL (≈ 6.57 to 32.9 mM)			1000 to 5000 µg/mL (≈ 6.57 to 32.9 mM)					1000 to 5000 µg/mL (≈ 6.57 to 32.9 mM)	5000 to 10000 µg/mL (≈ 32.9 to 65.7 mM)	1000 to 5000 µg/mL (≈ 6.57 to 32.9 mM)
